Results reported in US20100173918A1, “METHODS AND COMPOSITIONS FOR DETERMINING THE EFFICACY OF BREAST CANCER THERAPEUTICS” (TARGETED MOLECULAR DIAGNOSTICS, LLC, priority 2007, published 2010).
Where “and” joins values, the source holds several entries; their conditions need not be identical. Equal entries are not always repeated.

How the values were obtained:
[1] = EGF103009 study of lapatinib monotherapy: safety / adverse events; format: in vivo, human
[2] = tested on: patients with IBC (inflammatory breast cancer); assay: EGF103009 open-label study of lapatinib monotherapy: clinical response (skin criteria / RECIST) and progression-free survival; format: in vivo, human; parameters: key to RECIST Response: CR: complete response; PR: partial response; SD: stable disease; conditions: for RECIST Response / Skin Response: individual patient, lapatinib 1,500 mg once daily
From the text: Patients: Eligible adults (18 years of age) had histologically confirmed IBC (Inflammatory breast cancer) and a clinical diagnosis of IBC (e.g., presence of diffuse erythema and edema [peau d'orange], with or without an underlying palpable mass, involving the majority of the skin of the breast). Pathologic evidence of dermal lymphatic invasion was not required. […] EGF103009 was approved by the institutional review board from each participating institution, and written informed consent was obtained from all patients.
Tumor biomarkers were analyzed in a blinded manner at a central Clinical Laboratory Improvement Amendments—certified College of American Pathology reference laboratory (Targeted Molecular Diagnostics, Westmont, Ill.) (Spector N. L., et al., J Clin Oncol 23:2502-2512 (2005)). […] The study design consisted of two stages; two responses were required in the first fifteen patients in either cohort before an additional fifteen patients were enrolled in that cohort (Green-Dahlberg design).
Patients underwent regular physical examinations and evaluations of performance status, body weight, CBC, serum chemistry, left ventricular ejection fraction by multiple gated acquisition scan or echocardiogram, and if applicable, digital photography to evaluate changes in chest wall/[…] disease or assessment by imaging studies, computed tomography scan or magnetic resonance imaging.
Efficacy and Safety Evaluation: Clinical response was assessed at 4-week intervals and imaging performed at 8-week intervals until disease progression or withdrawal from study. […] Toxicity was graded according to the National Cancer Institute Common Terminology Criteria (NC1-CTCAE), version 3.0.
Statistical Analysis: The statistical focus of the study was to test the null hypothesis that the overall response rate (ORR) is no more than 15% versus the alternative hypothesis that this rate is at least 40%. Each cohort consisted of two stages, such that if there were fewer than two responses at the end of stage 1 (15 patients), then the cohort would be closed in favor of the null hypothesis. […] Kaplan-Meier estimates of progression-free survival ([…]) were computed separately for cohort A and B. For this exploratory analysis, there were no statistical comparisons made between cohorts.

[3] = N = 45, >20% decrease in LVEF, asymptomatic and/or below lower limit of normal
[4] = N = 45, mostly musculoskeletal pain (76% of cases)
[5] = N = 45, one report of rash was not graded
[6] = Cohort A (HER-2 overexpressing IBC)
[7] = Cohort B (EGFR expression without HER-2 overexpression)

## CS(=O)(=O)CCNCc1ccc(-c2ccc3ncnc(Nc4ccc(OCc5cccc(F)c5)c(Cl)c4)c3c2)o1 [lapatinib, Lapatinib ditosylate]
[1]; N = 45
  Anemia, Grade > 3 %: 4%
  Anemia, Grade > 3 No.: 2
  Anemia, Total %: 7%
  Anemia, Total No. of Patients: 3
  Anorexia, Grade > 3 %: 2%
  Anorexia, Grade > 3 No.: 1
  Anorexia, Total %: 22%
  Anorexia, Total No. of Patients: 10
  Constipation, Grade > 3 %: 0%
  Constipation, Grade > 3 No.: 0
  Constipation, Total %: 7%
  Constipation, Total No. of Patients: 3
  Decreased LVEF, Grade > 3 %: 0%
  Decreased LVEF, Grade > 3 No.: 0
  Diarrhea, Grade > 3 %: 11%
  Diarrhea, Grade > 3 No.: 5
  Diarrhea, Total %: 60%
  Diarrhea, Total No. of Patients: 27
  Dyspnea, Grade > 3 %: 11%
  Dyspnea, Grade > 3 No.: 5
  Dyspnea, Total %: 20%
  Dyspnea, Total No. of Patients: 9
  Edema, Grade > 3 %: 2%
  Edema, Grade > 3 No.: 1
  Edema, Total %: 13%
  Edema, Total No. of Patients: 6
  Elevated ALT/AST, Grade > 3 %: 4%
  Elevated ALT/AST, Grade > 3 No.: 2
  Elevated ALT/AST, Total %: 7%
  Elevated ALT/AST, Total No. of Patients: 3
  Elevated alkaline phosphatase, Grade > 3 %: 0%
  Elevated alkaline phosphatase, Grade > 3 No.: 0
  Elevated alkaline phosphatase, Total %: 9%
  Elevated alkaline phosphatase, Total No. of Patients: 4
  Fatigue, Grade > 3 %: 0%
  Fatigue, Grade > 3 No.: 0
  Fatigue, Total %: 24%
  Fatigue, Total No. of Patients: 11
  Hyperbilirubinemia, Grade > 3 %: 2%
  Hyperbilirubinemia, Grade > 3 No.: 1
  Hyperbilirubinemia, Total %: 9%
  Hyperbilirubinemia, Total No. of Patients: 4
  Infection, Grade > 3 %: 4%
  Infection, Grade > 3 No.: 2
  Infection, Total %: 13%
  Infection, Total No. of Patients: 6
  Nausea, Grade > 3 %: 0%
  Nausea, Grade > 3 No.: 0
  Nausea, Total %: 24%
  Nausea, Total No. of Patients: 11
  Pain, Grade > 3 %: 16%
  Pain, Grade > 3 No.: 7
  Pleural effusion, Grade > 3 %: 9%
  Pleural effusion, Grade > 3 No.: 4
  Pleural effusion, Total %: 11%
  Pleural effusion, Total No. of Patients: 5
  Pruritus, Grade > 3 %: 0%
  Pruritus, Grade > 3 No.: 0
  Pruritus, Total %: 11%
  Pruritus, Total No. of Patients: 5
  Rash, Grade > 3 %: 0%
  Rash, Grade > 3 No.: 0
  Vomiting, Grade > 3 %: 0%
  Vomiting, Grade > 3 No.: 0
  Vomiting, Total %: 20%
  Vomiting, Total No. of Patients: 9
  grade ½ diarrhea: 49%
  grade ½ musculoskeletal pain: 42%
  grade ½ skin rash: 36%
[1]; [3]
  Decreased LVEF, Total %: 7%
  Decreased LVEF, Total No. of Patients: 3
[1]; [4]
  Pain, Total %: 58%
  Pain, Total No. of Patients: 26
[1]; [5]
  Rash, Total %: 36%
  Rash, Total No. of Patients: 16
[1]; both cohorts
  tolerability of lapatinib monotherapy: generally well tolerated
[2]; cohort A
  time by which all responses in the skin occurred (first assessment): ≤ 4 week
[2]; cohort A, 15 patients with prior trastuzumab
  patients with response to lapatinib among those who received prior trastuzumab therapy: six
[2]; cohort A, HER-2+ IBC, n = 30
  patients who experienced response: 15 of 30
[2]; cohort A, n = 30
  patients whose best clinical response was a CR in chest wall/skin or RECIST-measurable lesions: 7%
  patients with a PR in chest wall/skin and/or RECIST-measurable lesions as best response: 43%
[2]; cohort A, tumors coexpressing pHER-2 and pHER-3
  patients who responded: nine of 10
[2]; cohort A, tumors not coexpressing pHER-2 and pHER-3
  patients who responded: four of 14
[2]; cohort A, median follow-up 15.3 weeks
  median PFS: 14 weeks
[2]; cohort B, n = 15
  patients with a clinical response (PR in skin/chest disease): one of 15
[2]; cohort B, median follow-up 4.1 weeks
  median PFS: 4 weeks
[2]; [6]
  RECIST Response: PR* (4×) and PR (3×) and SD (7×)
  Skin Response: PR (more than 50% decrease in extent of skin disease from baseline documented by digital photography)
[2]; [7]
  RECIST Response: SD
  Skin Response: PR (more than 50% decrease in extent of skin disease from baseline documented by digital photography)
